Assay results taken from patent US7189756B2, “Pyrrolidine derivatives” (Hoffman-La Roche Inc., priority 2000, dated 2007).

Point of comparison: `Nc1c(-c2ccccc2)nnn1C[C@@H]1C[C@@H](S)CN1S(=O)(=O)c1ccc2ccccc2c1`, melting point 70 °C. Against it:
- CS(=O)(=O)N1C[C@H](S)C[C@H]1COCC1CCCCC1 — lower, 68 to 69 °C
- O=C(Nc1ccccc1F)N1C[C@H](S)C[C@H]1CNCc1cc(F)ccc1F — higher, 126 °C
- Cc1c(-c2ccccc2)nnn1C[C@@H]1C[C@@H](S)CN1S(=O)(=O)c1ccc2ccccc2c1 — higher, 146 °C
- CS(=O)(=O)N1C[C@H](S)C[C@H]1Cn1nnc(C(N)=O)c1N — higher, 189 °C
- CCOC(=O)c1nnn(C[C@@H]2C[C@@H](S)CN2S(=O)(=O)c2ccc3ccccc3c2)c1C — higher, 95 °C
